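Interpolation was linear, between the two tested concentrations surrounding the appropriate level; five concentrations were tested over 48 hours in 96-well plates. The concentration for 50% growth inhibition is given as GI50. TGI marks complete inhibition of growth.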
Tests used:
Assay in all cases: inhibition of tumour cell growth, NCI panel, 48 h
SNB-75 CNS = test system: SNB-75 CNS
NCI-H23 lung = test system: NCI-H23 lung
NCI-H226 lung = test system: NCI-H226 lung
HOP-92 NSCLC = test system: HOP-92 NSCLC
SF-539 CNS = test system: SF-539 CNS
SK-MEL-5 melanoma = test system: SK-MEL-5 melanoma
MOLT-4 leukemia = test system: MOLT-4 leukemia
TK-10 renal = test system: TK-10 renal
OVCAR-3 ovarian = test system: OVCAR-3 ovarian
SNB-19 CNS = test system: SNB-19 CNS

Structure (SMILES)	GI50 (SNB-75 CNS) [µM]	TGI (SNB-75 CNS) [µM]	GI50 (NCI-H23 lung) [µM]	TGI (NCI-H23 lung) [µM]	GI50 (NCI-H226 lung) [µM]	TGI (NCI-H226 lung) [µM]	GI50 (HOP-92 NSCLC) [µM]	TGI (HOP-92 NSCLC) [µM]	GI50 (SF-539 CNS) [µM]	TGI (SF-539 CNS) [µM]	GI50 (SK-MEL-5 melanoma) [µM]	TGI (SK-MEL-5 melanoma) [µM]	GI50 (MOLT-4 leukemia) [µM]	TGI (MOLT-4 leukemia) [µM]	GI50 (TK-10 renal) [µM]	TGI (TK-10 renal) [µM]	GI50 (OVCAR-3 ovarian) [µM]	TGI (OVCAR-3 ovarian) [µM]	GI50 (SNB-19 CNS) [µM]	TGI (SNB-19 CNS) [µM]
CC1=C(C)C(=O)c2c(c(C(=O)c3ccccc3)c3nc4ccccc4n3c2C)C1=O	15.8	40.3	46.5	> 100	> 100	> 100	26	87.3	> 100	> 100	> 100	> 100	> 100	> 100	59.5	> 100	> 100	> 100	38.1	> 100
CCCc1c2c([nH]c(=O)c1C)C(=O)c1[nH]c(=O)c(C)c(CCC)c1C2=O	–	55.9	–	57.4	–	> 100	–	93.8	–	> 100	–	17.6	–	57	–	> 100	–	5.97	–	55
Cn1ccnc1C(=O)/C=C/c1ccc(CC(=O)Nc2ccc(Cl)cc2)cc1	1.9	> 25	2.04	> 25	7.43	> 25	> 25	> 25	6.4	> 25	14.4	> 25	1.74	> 25	12.3	> 25	1.03	> 25	1.77	> 25
O=C(Nc1ccc(Cl)c([N+](=O)[O-])c1)Nc1nc2ccccc2s1	3.97	15.4	2.4	9.05	4.06	17.3	2.34	7.06	3.77	16.9	1.88	4.17	3.76	17.1	4.26	12.8	3.27	10.6	4.87	30.8
Cc1ccc(NC(=O)c2[nH]c(=S)nc(N)c2-c2ccccc2C)cc1C	–	> 100	–	> 100	–	> 100	–	> 100	–	> 100	–	> 100	–	> 100	–	> 100	–	> 100	–	> 100
Cc1ccc(NC(c2ccccc2)c2ccc3cccnc3c2O)cc1 (centres undefined)	–	19.2	–	19.2	–	8.4	–	16	–	8.18	–	15.4	–	17.3	–	14.3	–	7.58	–	20
CCNC(=O)C[C@@H]1N=C(c2ccc(Cl)cc2)c2cc(OC)ccc2-n2c(C)nnc21	0.034	1.6	13.5	> 100	> 32.8	> 100	0.548	> 100	2.33	> 100	–	> 100	> 44.2	> 100	0.645	> 53.8	6.29	> 100	5.11	> 100
O=C(Nc1ccc(S(=O)(=O)Nc2nccs2)cc1)c1cccnc1Nc1cccc(Cl)c1	9.43	51.3	12.9	28.5	21.9	98.7	11.2	36.5	16.2	44.5	11.3	23.5	12.5	88.9	22.8	51.1	13.1	27.4	14.7	34.4
COc1ccc(CN2C(=O)/C(=C\c3cc(OC)c(OC)c(OC)c3)c3cc(OC)ccc32)cc1	2.17	6.62	1.84	3.85	3.93	22.8	1.21	16.8	1.86	3.76	3.09	9.41	4.07	> 100	3.92	18.6	2.14	4.7	3	10.7

Source: PubChem BioAssay (NCI)
